Reference: patent US4710489A, “Glutathione delivery system” (Cornell Research Foundation, Inc., priority 1985, dated 1987)

Legend:
[1] = test system: GSH levels in the liver and in the kidney; test: GSH levels in liver and kidney after 35S-labeled test compound, GSH synthesis inhibited by buthionine sulfoximine (Example 5); assay type: in vivo; details: mice, i.p. 7.5 mmol/kg, two hours after treatment, buthionine sulfoximine 2 mmol/kg 14 and 4 hours before dissection
Description: Groups of 3 or 4 mice, each having a body weight of 18 to 22g, were starved over a period of 12 hours and treated intraperitoneally with a dose of 7.5 mmol/kg of the test compound labeled by ^35 S (GSH labeled by ^35 S was used as the starting material). Two hours after the treatment, the test mice were dissected, and the liver and kidney were taken out. These organs were homogenized in 5 fold volume of 5% sulfosalicylic acid and centrifuged over a period of 5 minutes to give 0.05 ml of a supernatant fluid. The supernatant fluid was admixed with 0.95 ml of water and 4 ml of monofluorine scintillation fluid, and the ^35 S content was assayed by the use of an LKB scintillation counter. On the other hand, the supernatant fluid was treated with monobromobimane and subjected to HPLC to determine the amount of the test compound. The intracellular GSH synthesis was inhibited by administering intraperitoneally 2 mmol/kg of buthionine sulfoximine 14 hours and 4 hours before the dissection.

[2] = test system: GSH level in the liver and in the kidney; test: GSH level in liver and kidney of starved mice (Example 6); assay type: in vivo; details: i.p. 10 mmol/kg, 2 to 3 hours after the administration
Description: The test compound was dissolved in sterile water to give a test solution. Groups of 3 mice, each having a body weight of 20 to 25 g, were starved over a period of 24 hours and treated intraperitoneally with a dose of 10 mmol/kg of the test compound. Mice were dissected by every two hours, and the liver and kidney were taken out. GSH analysis was performed on each of the organs.

[3] = test system: GSH level in the liver; test: GSH level in the liver after sublethal acetaminophen (Example 7); assay type: in vivo; details: acetaminophen 2.5 mmol/kg i.p.; for GSH level in the liver: starved mice, test compound 10 mmol/kg i.p. half an hour later
Description: Groups of three starved mice were intraperitoneally treated with 2.5 mmol/kg (less than the lethal dose) of acetaminophen, and half an hour later 10 mmol/kg of the test compound was intraperitoneally administered to the mice. […] When other thiols such as L-cysteine and L-cysteine methyl ester were administered under the same conditions, the GSH level in the liver was markedly low.

[4] = test system: mice; test: Survival of starved mice after lethal dose of acetaminophen (Example 8); assay type: in vivo; details: acetaminophen 5 mmol/kg i.p., test compound 10 mmol/kg one hour later, 15 mice, 7 days
Text: Starved mice were intraperitoneally treated with 5 mmol/kg (lethal dose) of acetaminophen and, one hour later, with 10 mmol/kg of the test compound.

[5] = test system: glutamic-pyruvic acid transaminase (GPT) activity in serum; test: Serum GPT activity after acetaminophen (Example 9, Table 1); assay type: in vivo, Male ICR mice; details: half an hour after acetaminophen 2.5 mmol/kg, blood 8 hours after acetaminophen, ± SD
Description: Male ICR mice, each having a body weight of 30 to 40 g, were starved over a period of 15 hours and intraperitoneally treated with 2.5 mmol/kg of acetaminophen. The acetaminophen was used as a solution in Cremophore buffer (i.e. physiological saline solution containing 10% Cremophore and 1.5% ethanol). Half an hour later a designed amount of the test compound was intraperitoneally administered to the mice. The test compound was used as a solution in physiological saline adjusted to pH 6.5. […] Then, the glutamic-pyruvic acid transaminase (GPT) activity in serum was assayed. The results are shown in Table 1 as a percentage to that of the control group to which only acetaminophen was administered.
Note: Figure is a percentage of blood GPT activity to that of Control
Group (± Standard Deviation (n = 4 - 16)).

[6] = test system: glutathione level of the liver and kidney; test: Glutathione levels of liver and kidney of fasted mice given glutathione ester or glutathione (Example 1, Comparative Example 1); assay type: in vivo; details: for glutathione in the kidney / glutathione level of the liver: fasted mice, i.p. 10 millimoles per kilogram, 2 hours after administration, vs saline controls
Description: A solution of the glutathione ester was prepared in aseptic water. […] At intervals of 2 hours, as shown in FIGS. 1(a) and (b), the animals were decapitated and the liver and kidney tissues were removed and analyzed for glutathione. Using groups of 3 mice each, values are given as means ±S.D.

[7] = test system: glutathione levels of the liver and kidney; test: Glutathione levels of liver and kidney of mice pretreated with buthionine sulfoximine (Example 2); assay type: in vivo
Text: Controls were again given saline, with tissue levels of GSH being determined at the indicated intervals. Values are means ±S.D., using groups of 3 mice each.

[8] = test system: level of liver glutathione; details: for glutathione level of the liver: fasted mice, acetaminophen 2.5 mmol/kg i.p., test compound 10 mmol/kg one-half hour later
Description: In this example, fasted mice were injected intraperitoneally with acetaminophen (2.5 mmol/kg), and one-half hour later (indicated by arrow in FIG. 3), they were given GSH monomethyl ester, GSH, L-cysteine, L-cysteine methyl ester (10 mmol/kg) or an equivalent volume of 0.15 M NaCl (control). Tissue GSH levels were determined at the indicated intervals on groups (3) of mice; values are means ±S.D.

[9] = test system: mice
[10] = mice pretreated with 2 mmol/kg buthionine sulfoximine, ester 10 mmol/kg i.p. 4 hours after the inhibitor
[11] = buthionine sulfoximine 2 mmol/kg, before ester

Structure (SMILES): CCCCCCOC(=O)CNC(=O)[C@H](CS)NC(=O)CC[C@H](N)C(=O)O [GSH mono-n-hexyl ester, n-Hexyl γ-L-glutamyl-L-cysteinylglycinate]
- GSH level in the kidney [1]: more than 2.0 μmol/g
- GSH level in the liver [1]: more than 1.0 μmol/g
- GSH level in the kidney [2]: substantial elevation
- GSH level in the liver [2]: substantial elevation
- GSH level in the liver [3]: marked elevation
- survival [4]: survived
- percentage of blood GPT activity to that of Control Group ([5]; Dosage 0.01 mmol/kg i.p.): 100.6 ± 31.3%
- percentage of blood GPT activity to that of Control Group ([5]; Dosage 0.03 mmol/kg i.p.): 82.3 ± 33.5%
- percentage of blood GPT activity to that of Control Group ([5]; Dosage 0.1 mmol/kg i.p.): 60.6 ± 15.8%
- percentage of blood GPT activity to that of Control Group ([5]; Dosage 0.3 mmol/kg i.p.): 13.2 ± 0.3%
- percentage of blood GPT activity to that of Control Group ([5]; Dosage 1 mmol/kg i.p.): 3.0 ± 0.3%

Structure (SMILES): CCOC(=O)CNC(=O)[C@H](CS)NC(=O)CC[C@H](N)C(=O)O [glutathione monoethyl ester, L-γ-Glutamyl-L Cysteinyl Glycyl Ethyl Ester]
- effects on tissue glutathione levels compared with glutathione monomethyl ester ([6]; comparison of monoethyl with monomethyl ester): about the same

Structure (SMILES): COC(=O)CNC(=O)[C@H](CS)NC(=O)CC[C@H](N)C(=O)O [glutathione monomethyl ester]
- glutathione in the kidney [6]: increased substantially
- glutathione level of the liver [6]: increased substantially
- glutathione level in kidney [7, 10]: substantial increase
- glutathione level in liver [7, 10]: substantial increase
- glutathione level of the liver [8]: increased markedly
- fatalities ([9]; acetaminophen 5 mmole per kilogram, ester 10 mmole per kilogram 1 hour later, 15 mice, 7 days): no fatalities

Structure (SMILES): CC(C)COC(=O)CNC(=O)[C@H](CS)NC(=O)CC[C@H](N)C(=O)O [GSH monoisobutyl ester, Isobutyl γ-L-glutamyl-L-cysteinylglycinate]
- GSH level in the kidney [1]: more than 2.0 μmol/g
- GSH level in the liver [1]: more than 1.0 μmol/g
- GSH level in the kidney [2]: substantial elevation
- GSH level in the liver [2]: substantial elevation
- GSH level in the liver [3]: marked elevation
- survival [4]: survived
- percentage of blood GPT activity to that of Control Group ([5]; Dosage 0.01 mmol/kg i.p.): 84.1 ± 13.0%
- percentage of blood GPT activity to that of Control Group ([5]; Dosage 0.1 mmol/kg i.p.): 44.8 ± 14.8%
- percentage of blood GPT activity to that of Control Group ([5]; Dosage 1 mmol/kg i.p.): 3.6 ± 0.4%

Structure (SMILES): CC(=O)Nc1ccc(O)cc1 [acetaminophen, reference compound]
- level of liver glutathione after acetaminophen alone ([8]; sublethal dose 2.5 mmol/kg i.p., control given 0.15 M NaCl): marked decrease
- GSH level in the liver after acetaminophen alone ([3]; control group given 0.15 M saline): Marked fall
- lethality of acetaminophen alone ([9]; 5 mmole per kilogram, 40 mice, within 7 days): all of the mice died

Structure (SMILES): N[C@@H](CS)C(=O)O [L-cysteine, reference compound]
- glutathione level of the liver [8]: much less
- GSH level in the liver [3]: markedly low

Structure (SMILES): N[C@@H](CCC(=O)N[C@@H](CS)C(=O)NCC(=O)O)C(=O)O [GSH, L-γ-glutamyl-L-cysteinyl-glycine, reference compound]
- glutathione in the kidney [6]: only a slight effect
- glutathione level of the liver [6]: no effect
- GSH level in the kidney [1]: 0.560 µmol/g
- GSH level in the liver [1]: 0.582 µmol/g
- GSH level in the kidney [2]: slight elevation
- GSH level in the liver [2]: No elevation
- percentage of blood GPT activity to that of Control Group ([5]; Dosage 0.1 mmol/kg i.p.): 105.3 ± 20.1%
- percentage of blood GPT activity to that of Control Group ([5]; Dosage 0.3 mmol/kg i.p.): 68.5 ± 16.3%
- percentage of blood GPT activity to that of Control Group ([5]; Dosage 1 mmol/kg i.p.): 4.2 ± 0.5%

Structure (SMILES): CC(C)OC(=O)CNC(=O)[C@H](CS)NC(=O)CC[C@H](N)C(=O)O [GSH monoisopropyl ester, Isopropyl γ-L-glutamyl-L-cysteinylglycinate]
- GSH level in the kidney [1]: more than 2.0 μmol/g
- GSH level in the liver [1]: more than 1.0 μmol/g
- GSH level in the kidney [2]: substantial elevation
- GSH level in the liver [2]: substantial elevation
- GSH level in the liver [3]: marked elevation
- survival [4]: survived
- percentage of blood GPT activity to that of Control Group ([5]; Dosage 0.01 mmol/kg i.p.): 75.2 ± 15.0%
- percentage of blood GPT activity to that of Control Group ([5]; Dosage 0.03 mmol/kg i.p.): 51.2 ± 15.6%
- percentage of blood GPT activity to that of Control Group ([5]; Dosage 0.1 mmol/kg i.p.): 19.8 ± 7.9%
- percentage of blood GPT activity to that of Control Group ([5]; Dosage 0.3 mmol/kg i.p.): 8.8 ± 3.5%
- percentage of blood GPT activity to that of Control Group ([5]; Dosage 1 mmol/kg i.p.): 3.8 ± 0.5%

Structure (SMILES): CCCCS(=N)(=O)CCC(N)C(=O)O (centres unmarked) [buthionine sulfoximine, reference compound]
- glutathione level of the kidney after the inhibitor [7, 11]: decreased to a very low value
- glutathione level of the liver after the inhibitor [7, 11]: decreased to a very low value

Structure (SMILES): COC(=O)[C@@H](N)CS [L-cysteine methyl ester, reference compound]
- glutathione level of the liver [8]: much less
- GSH level in the liver [3]: markedly low
